Results as given in patent publication US4698352A, “4-oxo-1,4-dihydronicotinic acid derivatives, salts thereof, and antibacterial agents containing the same” (Toyama Chemical Co., Ltd., priority 1982, dated 1987).
≈ marks a conversion by molar mass, not a printed value. Read-outs that look alike come from different tables or passages of the source.

What was measured:
Assay in all cases: Antibacterial activity (MIC), agar dilution
Type in all cases: cell-based
[1] = system: Aci. antitratus A-6; conditions: 20 h, Aci. antitratus A-6; 10^6 cells per ml; 37° C., 20 hours; read-out: MIC
Description: (§1) The amount of bacteria inoculated was 10^4 cells per plate (10^6 cells per ml).

[2] = system: E. coli NIHJ JC-2; conditions: Escherichia coli, NIHJJC2, 20 h, E. coli NIHJ JC-2; 10^6 cells per ml; 37° C., 20 hours; read-out: MIC
Description: as §1

[3] = system: E. coli TK-111; conditions: Escherichia coli, TK111, 20 h, E. coli TK-111; 10^6 cells per ml; 37° C., 20 hours; read-out: MIC
Description: as §1

[4] = system: Ent. cloacae IID977; conditions: Enterobacter cloacae, IID977, 20 h, Ent. cloacae IID977; 10^6 cells per ml; 37° C., 20 hours; read-out: MIC
Description: as §1

[5] = system: Kl. pneumoniae Y-41; conditions: Klebsiella pneumoniae, Y41, 10^6 cells per ml, 37° C., 20 hours, read-out: MIC
Description: as §1

[6] = system: Kl. pneumoniae Y-50; conditions: Klebsiella pneumoniae, Y50, 20 h, 10^6 cells per ml, 37° C., read-out: MIC
Description: as §1

[7] = system: Pro. mirabilis T-111; conditions: Proteus mirabilis, 37° C.
Description: as §1

[8] = system: Pro. morganii T-216; conditions: Morganella morganii, 37° C.
Description: as §1

[9] = system: Pro. vulgaris GN3027; conditions: Proteus vulgaris, GN3027, 20 h, Pro. vulgaris GN3027; 10^6 cells per ml; 37° C., 20 hours; read-out: MIC
Description: as §1

[10] = system: Ps. aeruginosa IFO3445; conditions: Pseudomonas aeruginosa
Description: as §1

[11] = system: Ps. aeruginosa S-68; conditions: Pseudomonas aeruginosa
Description: as §1

[12] = system: St. aureus FDA209P; conditions: Staphylococcus aureus, FDA209P, 20 h, St. aureus FDA209P; 10^6 cells per ml; 37° C., 20 hours; read-out: MIC
Description: as §1

[13] = system: E. coli TK-3*; conditions: Escherichia coli, 20 h, E. coli TK-3, penicillinase-producing; 10^6 cells per ml; read-out: MIC
Description: as §1
(§2) * Penicillinase-producing bacteria

[14] = system: Kl. pneumoniae Y-4*; conditions: Klebsiella pneumoniae, 20 h, Kl. pneumoniae Y-4, penicillinase-producing, 10^6 cells per ml
Description: as §1, §2

[15] = system: Ps. aeruginosa GN3379*; conditions: Pseudomonas aeruginosa, Ps. aeruginosa GN3379, penicillinase-producing, 10^6 cells per ml
Description: as §1, §2

[16] = system: St. aureus F-137*; conditions: Staphylococcus aureus, 20 h, St. aureus F-137, penicillinase-producing; 10^6 cells per ml; read-out: MIC
Description: as §1, §2

[17] = system: E. coli GN5482**; conditions: Escherichia coli, 20 h; E. coli GN5482, cephalospolinase-producing; 10^6 cells per ml; read-out: MIC
Description: as §1
(§3) ** Cephalospolinase-producing bacteria

[18] = system: Pro. vulgaris GN76**; conditions: Proteus vulgaris, 20 h; Pro. vulgaris GN76, cephalospolinase-producing; 10^6 cells per ml; read-out: MIC
Description: as §1, §3

[19] = system: Ps. aeruginosa GN918**; conditions: Pseudomonas aeruginosa, Ps. aeruginosa GN918, cephalospolinase-producing, 10^6 cells per ml
Description: as §1, §3

[20] = Ps. aeruginosa IFO3445, 10^6 cells per ml, 37° C., 20 hours, read-out: MIC
[21] = S68, Ps. aeruginosa S-68, 10^6 cells per ml, 37° C., 20 hours, read-out: MIC
[22] = T216, 10^6 cells per ml, 20 hours, read-out: MIC

SMILES | MIC [1] | MIC [2] | MIC [3] | MIC [4] | MIC [5] | MIC [6] | MIC ([7]; T111, 20 h, 10^6 cells per ml) | MIC ([8]; T216, 20 h, 10^6 cells per ml) | MIC [9] | MIC [10, 20] | MIC [11, 21] | MIC [12] | MIC [13] | MIC ([14]; read-out: MIC) | MIC ([15]; 20 h, read-out: MIC) | MIC [16] | MIC [17] | MIC [18] | MIC ([19]; 20 h, read-out: MIC) | MIC [8, 22] | other results
Cc1cc(O)ccc1-n1cc(C(=O)O)c(=O)cc1-c1ccc2[nH]ccc2c1 | 3.13 µg/mL (≈ 8.69 µM) | 0.39 µg/mL (≈ 1.08 µM) | 0.1 µg/mL (≈ 0.277 µM) | 0.78 µg/mL (≈ 2.16 µM) | 0.78 µg/mL (≈ 2.16 µM) | 0.2 µg/mL (≈ 0.555 µM) | 1.56 µg/mL (≈ 4.33 µM) | 1.56 µg/mL (≈ 4.33 µM) | 0.2 µg/mL (≈ 0.555 µM) | 6.25 µg/mL (≈ 17.3 µM) | 6.25 µg/mL (≈ 17.3 µM) | 0.1 µg/mL (≈ 0.277 µM) | 0.39 µg/mL (≈ 1.08 µM) | 1.56 µg/mL (≈ 4.33 µM) | 25 µg/mL (≈ 69.4 µM) | 0.1 µg/mL (≈ 0.277 µM) | ≤ 0.05 µg/mL | 0.78 µg/mL (≈ 2.16 µM) | 3.13 µg/mL (≈ 8.69 µM) |  | 
COc1ccc(-c2cc(=O)c(C(=O)O)cn2-c2ccc(O)cc2C)cc1F | 0.39 µg/mL (≈ 1.06 µM) | 0.39 µg/mL (≈ 1.06 µM) | ≤ 0.05 µg/mL | 0.39 µg/mL (≈ 1.06 µM) | 1.56 µg/mL (≈ 4.22 µM) | 0.78 µg/mL (≈ 2.11 µM) | 1.56 µg/mL (≈ 4.22 µM) | 1.56 µg/mL (≈ 4.22 µM) | 0.1 µg/mL (≈ 0.271 µM) | 12.5 µg/mL (≈ 33.8 µM) | 6.25 µg/mL (≈ 16.9 µM) | 0.1 µg/mL (≈ 0.271 µM) | 0.39 µg/mL (≈ 1.06 µM) | 1.56 µg/mL (≈ 4.22 µM) | 12.5 µg/mL (≈ 33.8 µM) | 0.1 µg/mL (≈ 0.271 µM) | ≤ 0.05 µg/mL | 0.39 µg/mL (≈ 1.06 µM) |  |  | MIC ([19]; GN918, 20 h): 1.56 µg/mL (≈ 4.22 µM)
Cc1cc(O)ccc1-n1cc(C(=O)O)c(=O)cc1/C=C/c1ccccc1 | 0.1 µg/mL (≈ 0.288 µM) | 0.39 µg/mL (≈ 1.12 µM) | 0.2 µg/mL (≈ 0.576 µM) | 1.56 µg/mL (≈ 4.49 µM) | 3.13 µg/mL (≈ 9.01 µM) | 0.39 µg/mL (≈ 1.12 µM) | 3.13 µg/mL (≈ 9.01 µM) |  | 0.1 µg/mL (≈ 0.288 µM) | 25 µg/mL (≈ 72 µM) |  | 0.1 µg/mL (≈ 0.288 µM) | 0.39 µg/mL (≈ 1.12 µM) | 3.13 µg/mL (≈ 9.01 µM) | 6.25 µg/mL (≈ 18 µM) | 0.2 µg/mL (≈ 0.576 µM) | ≤ 0.05 µg/mL | 0.39 µg/mL (≈ 1.12 µM) | 1.56 µg/mL (≈ 4.49 µM) | 1.56 µg/mL (≈ 4.49 µM) | MIC ([11]; S68, 20 h): 3.13 µg/mL (≈ 9.01 µM)
O=C(O)c1cn(-c2ccc(O)cc2)c(-c2ccc(-n3cccc3)cc2)cc1=O | 0.1 µg/mL (≈ 0.269 µM) | 0.1 µg/mL (≈ 0.269 µM) | ≤ 0.05 µg/mL | 0.78 µg/mL (≈ 2.09 µM) | 1.56 µg/mL (≈ 4.19 µM) | 0.39 µg/mL (≈ 1.05 µM) | 1.56 µg/mL (≈ 4.19 µM) | 1.56 µg/mL (≈ 4.19 µM) | 0.2 µg/mL (≈ 0.537 µM) | 3.13 µg/mL (≈ 8.41 µM) | 3.13 µg/mL (≈ 8.41 µM) | 0.1 µg/mL (≈ 0.269 µM) | 0.39 µg/mL (≈ 1.05 µM) | 1.56 µg/mL (≈ 4.19 µM) | 3.13 µg/mL (≈ 8.41 µM) | 0.1 µg/mL (≈ 0.269 µM) | ≤ 0.05 µg/mL | 0.78 µg/mL (≈ 2.09 µM) |  |  | MIC ([19]; GN918, 20 h): 1.56 µg/mL (≈ 4.19 µM)
O=C(O)c1cn(-c2ccc(O)cc2)c(-c2ccc(-c3ccccn3)s2)cc1=O | 0.78 µg/mL (≈ 2 µM) | 0.39 µg/mL (≈ 0.999 µM) | ≤ 0.05 µg/mL | 1.56 µg/mL (≈ 4 µM) | 3.13 µg/mL (≈ 8.02 µM) | 0.78 µg/mL (≈ 2 µM) | 3.13 µg/mL (≈ 8.02 µM) |  | 0.1 µg/mL (≈ 0.256 µM) |  |  | 0.2 µg/mL (≈ 0.512 µM) | 0.78 µg/mL (≈ 2 µM) | 3.13 µg/mL (≈ 8.02 µM) |  | 0.2 µg/mL (≈ 0.512 µM) | ≤ 0.05 µg/mL | 0.78 µg/mL (≈ 2 µM) | 1.56 µg/mL (≈ 4 µM) | 1.56 µg/mL (≈ 4 µM) | MIC ([10]; IFO3445, 20 h): 3.13 µg/mL (≈ 8.02 µM); MIC ([11]; S68, 20 h): 3.13 µg/mL (≈ 8.02 µM); MIC ([15]; GN3379, 20 h): 3.13 µg/mL (≈ 8.02 µM)
Cc1cc(O)ccc1-n1cc(C(=O)O)c(=O)cc1-c1ccc(N(C)C)cc1 | 0.1 µg/mL (≈ 0.274 µM) | 0.1 µg/mL (≈ 0.274 µM) | ≤ 0.05 µg/mL | 0.39 µg/mL (≈ 1.07 µM) | 0.78 µg/mL (≈ 2.14 µM) | 0.2 µg/mL (≈ 0.549 µM) |  |  | 0.1 µg/mL (≈ 0.274 µM) | 3.13 µg/mL (≈ 8.59 µM) | 3.13 µg/mL (≈ 8.59 µM) | ≤ 0.05 µg/mL | 0.2 µg/mL (≈ 0.549 µM) |  | 3.13 µg/mL (≈ 8.59 µM) | ≤ 0.05 µg/mL | ≤ 0.05 µg/mL | 0.39 µg/mL (≈ 1.07 µM) | 1.56 µg/mL (≈ 4.28 µM) | 0.78 µg/mL (≈ 2.14 µM) | MIC ([7]; T111, 10^6 cells per ml, 20 hours, read-out: MIC): 0.78 µg/mL (≈ 2.14 µM); MIC [14]: 0.78 µg/mL (≈ 2.14 µM)
